# In patent US10294202B2, “Pyrrolidinones as herbicides” (FMC Corporation, priority 2013, dated 2019):
# Tests used:
# [1] = system: lambsquarters; assay: Test E preemergence herbicide test; format: in vivo, Chenopodium album; set-up: key: 0 = no effect, 100 = complete control
# Excerpt: (§1) Seeds of plant species selected from corn (Zea mays), soybean (Glycine max), velvetleaf (Abutilon theophrasti), lambsquarters (Chenopodium album), wild poinsettia (Euphorbia heterophylla), pigweed, palmer (palmer pigweed, Amaranthus palmeri), waterhemp (common waterhemp, Amaranthus rudis), surinam grass (Brachiaria decumbens), crabgrass, large (large crabgrass, Digitaria sanguinalis), crabgrass, Brazil (Brazilian crabgrass, Digitaria horizontalis), panicum, fall (fall panicum, Panicum dichotomiflorum), foxtail, giant (giant foxtail, Setaria faberii), foxtail, green (green foxtail, Setaria viridis), goosegrass (Eleusine indica), johnsongrass (Sorghum halepense), ragweed (common ragweed, Ambrosia elatior), barnyardgrass (Echinochloa crus-galli), sandbur (southern sandbur, Cenchrus echinatus), arrowleaf […] rhombifolia), ryegrass, Italian (Italian ryegrass, Lolium multiflorum), dayflower, VA (Virginia dayflower, Commelina virginica), field bindweed (Convolvulus arvensis), morningglory (Ipomoea coccinea), nightshade (eastern black nightshade, Solanum ptycanthum), kochia (Kochia scoparia), nutsedge, yellow (yellow nutsedge, Cyperus esculentus), cocklebur (common cocklebur, Xanthium strumarium), smartweed (ladysthumb smartweed, Polygonum Persicaria) and beggarticks (hairy beggarticks, Bidens pilosa), were planted into a silt loam soil and treated preemergence with test chemicals formulated in a non-phytotoxic solvent mixture which included a surfactant. Treated plants and controls were maintained in a greenhouse for 21 days, after which time all species were compared to controls and visually evaluated. Plant response ratings, summarized in Table E, are based on a scale of 0 to 100 where 0 is no effect and 100 is complete control. A dash (-) response means no test result.
# [2] = system: sandbur; assay: Test E preemergence herbicide test; format: in vivo, Cenchrus echinatus; set-up: key: 0 = no effect, 100 = complete control
# Excerpt: as §1
# [3] = system: bluegrass; assay: Test D pre-/postemergence herbicide test; format: in vivo, Poa annua; details: for Plant response rating, Bluegrass: scale 0 to 100 (0 no effect, 100 complete control); for Plant response rating: Bluegrass, scale 0 to 100
# Method in brief: (§2)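 Test chemicals in a non-phytotoxic solvent with surfactant were applied preemergence to seeds in silt loam soil and postemergence to plants at 2-18 cm (1- to 4-leaf stage) in peat-based medium. After 7 to 21 days in a controlled environment, injury was rated visually versus controls on a 0-100 scale (100 = complete control).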
# [4] = system: blackgrass; assay: Test D pre-/postemergence herbicide test; format: in vivo, Alopecurus myosuroides; details: for Plant response rating, Blackgrass: scale 0 to 100 (0 no effect, 100 complete control); for Plant response rating: Blackgrass, scale 0 to 100
# Excerpt: (§3) Seeds of plant species selected from bluegrass (annual bluegrass, Poa annua), blackgrass (Alopecurus myosuroides), canarygrass (littleseed canarygrass, Phalaris minor), chickweed (common chickweed, Stellaria media), galium (catchweed bedstraw, Galium aparine), bromegrass, downy (downy bromegrass, Bromus tectorum), field poppy (Papaver rhoeas), field violet (Viola arvensis), foxtail, green (green foxtail, Setaria viridis), deadnettle (henbit deadnettle, Lamium amplexicaule), ryegrass, Italian (Italian ryegrass, Lolium multiflorum), kochia (Kochia scoparia), lambsquarters (Chenopodium album), oilseed rape (Brassica napus), pigweed (Amaranthus retroflexus), chamomile (scentless chamomile, Matricaria inodora), Russian thistle (Salsola kali), speedwell (bird's-eye speedwell, Veronica persica), barley, spring (spring barley, Hordeum vulgare), wheat, spring (spring wheat, Triticum aestivum), buckwheat, wild (wild buckwheat, Polygonum convolvulus), mustard, wild (wild mustard, Sinapis arvensis), oat, wild (wild oat, Avena fatua), radish, wild (wild radish, Raphanus raphanistrum), […]), barley, winter (winter barley, Hordeum vulgare), and wheat, winter (winter wheat, Triticum aestivum) were planted into a silt loam soil and treated preemergence with test chemicals formulated in a non-phytotoxic solvent mixture which included a surfactant. At the same time, these species were planted in pots containing Redi-Earth® planting medium (Scotts Company, 14111 Scottslawn Road, Marysville, Ohio 43041) comprising spaghnum peat moss, vermiculite, wetting agent and starter nutrients and treated with postemergence applications of the test chemicals formulated in the same manner. Plants ranged in height from 2 to 18 cm (1- to 4-leaf stage). Treated plants and controls were maintained in a controlled growth environment for 7 to 21 days after which time all species were compared to controls and visually evaluated. Plant response ratings, summarized in Table D, are based on a scale of 0 to 100 where 0 is no effect and 100 is complete control. A dash (-) response means no test result.
# [5] = system: pigweed; assay: Test D pre-/postemergence herbicide test; format: in vivo, Amaranthus retroflexus; details: for Plant response rating, Pigweed: Preemergence, scale 0 to 100 (0 no effect, 100 complete control); for Plant response rating: Postemergence, Pigweed, scale 0 to 100
# Method in brief: as §2
# [6] = system: buckwheat, wild; assay: Test D pre-/postemergence herbicide test; format: in vivo, Polygonum convolvulus; details: for Plant response rating, Buckwheat, Wild: scale 0 to 100 (0 no effect, 100 complete control); for Plant response rating: Buckwheat, Wild, scale 0 to 100
# Method in brief: as §2
# [7] = system: mustard, wild; assay: Test D pre-/postemergence herbicide test; format: in vivo, Sinapis arvensis; details: for Plant response rating, Mustard, Wild: scale 0 to 100 (0 no effect, 100 complete control); for Plant response rating: Mustard, Wild, scale 0 to 100
# Excerpt: as §3
structure (smiles),measurement,setting,value
O=C1NCC(c2ccc(OC(F)F)cc2)C1C(=O)Nc1cccc(F)c1F (racemic) [Compound 350],"Plant response rating, Lambsquarters",[1]; 31 g ai/ha,80
same,"Plant response rating, Lambsquarters",[1]; 62 g ai/ha,60
same,"Plant response rating, Lambsquarters",[1]; 125 g ai/ha,98
same,"Plant response rating, Lambsquarters",[1]; 250 g ai/ha,95
same,"Plant response rating, Sandbur",[2]; 31 g ai/ha,15
same,"Plant response rating, Sandbur",[2]; 62 g ai/ha,35
same,"Plant response rating, Sandbur",[2]; 125 g ai/ha,65
same,"Plant response rating, Sandbur",[2]; 250 g ai/ha,85
O=C1NC[C@H](c2cccc(C(F)(F)F)c2)[C@H]1C(=O)Nc1cccc(F)c1F [Compound 206],"Plant response rating, Bluegrass","[3]; Preemergence, 62 g ai/ha",30
same,"Plant response rating, Bluegrass","[3]; Preemergence, 125 g ai/ha",35
same,"Plant response rating, Bluegrass","[3]; Preemergence, 31 g ai/ha",0
same,Plant response rating,"[3]; Preemergence, 250 g ai/ha",70
same,"Plant response rating, Blackgrass","[4]; Preemergence, 62 g ai/ha",70
same,"Plant response rating, Blackgrass","[4]; Preemergence, 125 g ai/ha",85
same,"Plant response rating, Blackgrass","[4]; Preemergence, 31 g ai/ha",30
same,Plant response rating,"[4]; Preemergence, 250 g ai/ha",90
same,"Plant response rating, Pigweed",[5]; 62 g ai/ha,20
same,"Plant response rating, Pigweed",[5]; 125 g ai/ha,40
same,"Plant response rating, Pigweed",[5]; 31 g ai/ha,5
same,"Plant response rating, Pigweed",[5]; 250 g ai/ha,50
same,"Plant response rating, Buckwheat, Wild","[6]; Preemergence, 62 g ai/ha",65
same,"Plant response rating, Buckwheat, Wild","[6]; Preemergence, 125 g ai/ha",50
same,"Plant response rating, Buckwheat, Wild","[6]; Preemergence, 31 g ai/ha",45
same,Plant response rating,"[6]; Preemergence, 250 g ai/ha",55
same,"Plant response rating, Mustard, Wild","[7]; Preemergence, 62 g ai/ha",0
same,"Plant response rating, Mustard, Wild","[7]; Preemergence, 125 g ai/ha",0
same,"Plant response rating, Mustard, Wild","[7]; Preemergence, 31 g ai/ha",0
same,Plant response rating,"[7]; Preemergence, 250 g ai/ha",75
same,"Plant response rating, Lambsquarters",[1]; 31 g ai/ha,35
same,"Plant response rating, Lambsquarters",[1]; 62 g ai/ha,65
same,"Plant response rating, Lambsquarters",[1]; 125 g ai/ha,95
same,"Plant response rating, Lambsquarters",[1]; 250 g ai/ha,98
same,"Plant response rating, Sandbur",[2]; 31 g ai/ha,65
same,"Plant response rating, Sandbur",[2]; 62 g ai/ha,80
same,"Plant response rating, Sandbur",[2]; 125 g ai/ha,95
same,"Plant response rating, Sandbur",[2]; 250 g ai/ha,98
O=C1NCC(c2cc(F)c(F)cc2F)C1C(=O)Nc1cccc(F)c1F (centres unmarked) [Compound 50],Plant response rating,"[3]; Postemergence, 16 g ai/ha",0
same,Plant response rating,"[3]; Postemergence, 31 g ai/ha",0
same,Plant response rating,"[3]; Postemergence, 62 g ai/ha",0
same,Plant response rating,"[3]; Postemergence, 125 g ai/ha",0
same,"Plant response rating, Bluegrass","[3]; Preemergence, 62 g ai/ha",0
same,"Plant response rating, Bluegrass","[3]; Preemergence, 16 g ai/ha",0
same,"Plant response rating, Bluegrass","[3]; Preemergence, 31 g ai/ha",0
same,Plant response rating,"[3]; Preemergence, 125 g ai/ha",0
same,Plant response rating,"[4]; Postemergence, 16 g ai/ha",0
same,Plant response rating,"[4]; Postemergence, 31 g ai/ha",0
same,Plant response rating,"[4]; Postemergence, 62 g ai/ha",0
same,Plant response rating,"[4]; Postemergence, 125 g ai/ha",0
same,"Plant response rating, Blackgrass","[4]; Preemergence, 62 g ai/ha",0
same,"Plant response rating, Blackgrass","[4]; Preemergence, 16 g ai/ha",0
same,"Plant response rating, Blackgrass","[4]; Preemergence, 31 g ai/ha",0
same,Plant response rating,"[4]; Preemergence, 125 g ai/ha",0
same,Plant response rating,[5]; 16 g ai/ha,5
same,Plant response rating,[5]; 31 g ai/ha,0
same,Plant response rating,[5]; 62 g ai/ha,0
same,Plant response rating,[5]; 125 g ai/ha,10
same,"Plant response rating, Pigweed",[5]; 62 g ai/ha,25
same,"Plant response rating, Pigweed",[5]; 125 g ai/ha,5
same,"Plant response rating, Pigweed",[5]; 16 g ai/ha,10
same,"Plant response rating, Pigweed",[5]; 31 g ai/ha,10
same,Plant response rating,"[6]; Postemergence, 16 g ai/ha",10
same,Plant response rating,"[6]; Postemergence, 31 g ai/ha",10
same,Plant response rating,"[6]; Postemergence, 62 g ai/ha",10
same,Plant response rating,"[6]; Postemergence, 125 g ai/ha",10
same,"Plant response rating, Buckwheat, Wild","[6]; Preemergence, 62 g ai/ha",0
same,"Plant response rating, Buckwheat, Wild","[6]; Preemergence, 16 g ai/ha",0
same,"Plant response rating, Buckwheat, Wild","[6]; Preemergence, 31 g ai/ha",0
same,Plant response rating,"[7]; Postemergence, 16 g ai/ha",40
same,Plant response rating,"[7]; Postemergence, 31 g ai/ha",60
same,Plant response rating,"[7]; Postemergence, 125 g ai/ha",40
same,"Plant response rating, Mustard, Wild","[7]; Preemergence, 62 g ai/ha",0
same,"Plant response rating, Mustard, Wild","[7]; Preemergence, 16 g ai/ha",50
same,Plant response rating,"[7]; Preemergence, 125 g ai/ha",80
O=C1NCC(c2ccc(Cl)c(Cl)c2)C1C(=O)Nc1ccccc1F (racemic) [Compound 14],"Plant response rating, Lambsquarters",[1]; 16 g ai/ha,0
same,"Plant response rating, Lambsquarters",[1]; 31 g ai/ha,0
same,"Plant response rating, Lambsquarters",[1]; 62 g ai/ha,0
same,"Plant response rating, Lambsquarters",[1]; 125 g ai/ha,50
same,"Plant response rating, Lambsquarters",[1]; 250 g ai/ha,70
same,"Plant response rating, Sandbur",[2]; 16 g ai/ha,0
same,"Plant response rating, Sandbur",[2]; 31 g ai/ha,0
same,"Plant response rating, Sandbur",[2]; 62 g ai/ha,0
same,"Plant response rating, Sandbur",[2]; 125 g ai/ha,0
same,"Plant response rating, Sandbur",[2]; 250 g ai/ha,30
